Laboratory results taken from PMC9386376, “Discovery of spirooxindole-derived small-molecule compounds as novel HDAC/MDM2 dual inhibitors and investigation of their anticancer activity” (Frontiers in Oncology, 2022).

Legend:
[1] = target: HDAC1 (Homo sapiens, UniProt Q13547); assay: HTRF enzyme inhibition assay, HDAC1; conditions: for inhibition at 1 µM: read-out: % enzyme inhibition HDAC; for % enzyme inhibition HDAC: compound at 1 μM, HTRF, method names HDAC1 protein
[2] = target: T1, GST-tagged MDM2 (Homo sapiens, UniProt Q00987); assay: HTRF enzyme inhibition assay, MDM2; format: biochemical; conditions: compound at 1 μM
T1 construct: purchased Cisbio Co. Ltd
Description: The enzymatic assay of test compounds is using the HTRF-based method provided by Cisbio Co. Ltd. In brief, the target compounds to be tested were prepared into samples with a concentration of 1 μM, which was added to GST-tagged MDM2 and HDAC1 proteins, respectively, then biotinylated substrate p53 peptide and HTRF detection reagents were added. The data obtained were processed by the ratio method, and the inhibition rates of MDM2 and HDAC1 were calculated. The detailed experimental procedures are according to the manufacturer’s protocols.

Sequence of HDAC1 (Q13547 whole entry): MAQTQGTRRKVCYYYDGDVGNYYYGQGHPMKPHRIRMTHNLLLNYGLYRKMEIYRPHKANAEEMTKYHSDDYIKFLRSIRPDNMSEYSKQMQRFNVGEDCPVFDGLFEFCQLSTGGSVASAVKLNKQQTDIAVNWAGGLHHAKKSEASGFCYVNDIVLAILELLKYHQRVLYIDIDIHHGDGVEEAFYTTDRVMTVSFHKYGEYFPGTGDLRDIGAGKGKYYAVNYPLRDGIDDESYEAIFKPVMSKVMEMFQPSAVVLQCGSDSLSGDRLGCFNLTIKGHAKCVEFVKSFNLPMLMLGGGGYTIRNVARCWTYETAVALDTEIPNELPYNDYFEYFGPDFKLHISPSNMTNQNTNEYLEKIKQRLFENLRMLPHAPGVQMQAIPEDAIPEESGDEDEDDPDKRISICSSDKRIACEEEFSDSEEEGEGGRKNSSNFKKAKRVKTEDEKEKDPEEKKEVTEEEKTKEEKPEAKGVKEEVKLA
T1 sequence (Q00987 whole entry): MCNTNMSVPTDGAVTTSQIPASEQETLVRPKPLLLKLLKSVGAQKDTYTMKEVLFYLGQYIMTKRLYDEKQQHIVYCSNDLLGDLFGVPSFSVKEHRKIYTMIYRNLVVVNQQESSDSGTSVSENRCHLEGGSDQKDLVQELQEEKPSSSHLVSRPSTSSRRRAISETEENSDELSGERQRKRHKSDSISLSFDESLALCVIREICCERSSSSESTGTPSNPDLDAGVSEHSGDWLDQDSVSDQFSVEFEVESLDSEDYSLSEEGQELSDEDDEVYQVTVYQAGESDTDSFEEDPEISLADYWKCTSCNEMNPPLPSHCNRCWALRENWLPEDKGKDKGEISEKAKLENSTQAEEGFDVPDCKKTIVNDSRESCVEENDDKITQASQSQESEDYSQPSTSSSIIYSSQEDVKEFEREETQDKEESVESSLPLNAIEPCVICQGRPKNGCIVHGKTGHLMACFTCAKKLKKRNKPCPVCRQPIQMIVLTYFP

Row | Compound | inhibition at 1 µM [1] | inhibition at 1 µM [2] | melting point | % enzyme inhibition HDAC [1] | % enzyme inhibition MDM2 [2]
1 | O=C(CCCCC(=O)Nc1ccc([C@@H]2[C@H]3CSCN3[C@]3(C(=O)Nc4cc(Cl)ccc43)[C@H]2C(=O)c2ccccc2)cc1)NO [7r, N^1-(4-((3R,6'S,7'R,7a'S)-6'-benzoyl-6-chloro-2-oxo-1',6',7',7a'-tetrahydro-3'H-spiro[indoline-3,5'-pyrrolo[1,2-c]thiazol]-7'-yl)phenyl)-N^6-hydroxyadipamide] | 55% | 61% | 160.6 to 161.9 °C |  | 
2 | O=C(CCCCCCC(=O)Nc1ccc([C@@H]2[C@H]3CSCN3[C@]3(C(=O)Nc4ccc(F)cc43)[C@H]2C(=O)c2ccccc2)cc1)NO [7c, N^1-(4-((3R,6'S,7'R,7a'S)-6'-benzoyl-5-fluoro-2-oxo-1',6',7',7a'-tetrahydro-3'H-spiro[indoline-3,5'-pyrrolo[1,2-c]thiazol]-7'-yl)phenyl)-N^8-hydroxyoctanediamide] | 68% | 51% | 144.3 to 145.7 °C |  | 
3 | O=C(CCC(=O)Nc1ccc([C@@H]2[C@H]3CSCN3[C@]3(C(=O)Nc4ccccc43)[C@H]2C(=O)c2ccccc2)cc1)NO [7o, N^1-(4-((3R,6'S,7'R,7a'S)-6'-benzoyl-2-oxo-1',6',7',7a'-tetrahydro-3'H-spiro[indoline-3,5'-pyrrolo[1,2-c]thiazol]-7'-yl)phenyl)-N^4-hydroxysuccinamide] | 54% | 43% | 145.1 to 146.3 °C |  | 
4 | O=C(CCCCCCC(=O)Nc1ccc([C@@H]2[C@H]3CCCN3[C@]3(C(=O)Nc4cc(Cl)ccc43)[C@H]2C(=O)c2ccccc2)cc1)NO [7t, N^1-(4-((1'R,2'S,3R,7a'R)-2'-benzoyl-6-chloro-2-oxo-1',2',5',6',7',7a'-hexahydrospiro[indoline-3,3'-pyrrolizin]-1'-yl)phenyl)-N^8-hydroxyoctanediamide] | 61% | 61% | 143.4 to 144.5 °C |  | 
5 | Nc1ccccc1NC(=O)CCC(=O)Nc1ccc([C@@H]2[C@H]3CSCN3[C@]3(C(=O)Nc4ccccc43)[C@H]2C(=O)c2ccccc2)cc1 [9a, N^1-(2-aminophenyl)-N^4-(4-((3R,6'S,7'R,7a'S)-6'-benzoyl-2-oxo-1',6',7',7a'-tetrahydro-3'H-spiro[indoline-3,5'-pyrrolo[1,2-c]thiazol]-7'-yl)phenyl)succinamide] | 37% | 50% | 149.1 to 150.2 °C |  | 
6 | COc1ccc2c(c1)NC(=O)[C@@]21[C@@H](C(=O)c2ccccc2)[C@H](c2ccc(NC(=O)CCCCCCC(=O)NO)cc2)[C@H]2CSCN21 [7k, N^1-(4-((3R,6'S,7'R,7a'S)-6'-benzoyl-6-methoxy-2-oxo-1',6',7',7a'-tetrahydro-3'H-spiro[indoline-3,5'-pyrrolo[1,2-c]thiazol]-7'-yl)phenyl)-N^8-hydroxyoctanediamide] | 70% | 54% |  |  | 
7 | N^1-(4-((3R,6'S,7'R,7a'S)-6-chloro-2-oxo-6'-(thiophene-2-carbonyl)-1',6',7',7a'-tetrahydro-3'H-spiro[indoline-3,5'-pyrrolo[1,2-c]thiazol]-7'-yl)phenyl)-N^6-hydroxyadipamide [15c] |  |  |  | 70% | 49%
8 | N^1-(4-((3R,6'S,7'R,7a'S)-6-chloro-6'-(4-(dimethylamino)benzoyl)-2-oxo-1',6',7',7a'-tetrahydro-3'H-spiro[indoline-3,5'-pyrrolo[1,2-c]thiazol]-7'-yl)phenyl)-N^6-hydroxyadipamide [7y] |  |  |  | 71% | 54%
9 | N^1-(4-((3R,6'S,7'R,7a'S)-6-chloro-6'-(furan-2-carbonyl)-2-oxo-1',6',7',7a'-tetrahydro-3'H-spiro[indoline-3,5'-pyrrolo[1,2-c]thiazol]-7'-yl)phenyl)-N^6-hydroxyadipamide [15b] |  |  |  | 70% | 48%
